Data reported in US9783532B2, “Molecules having certain pesticidal utilities, and intermediates, compositions, and processes related thereto” (Dow AgroSciences LLC, priority 2013, dated 2017).

Tests used:
[1] = test system: Cabbage Looper (Trichoplusia ni) ("CL"); test: Bioassay on cabbage looper (CL), 128-well diet tray assay; type: in vivo; settings: 168 h, 50 μg/cm^2 on artificial diet, second instar CL larvae, 25° C., five to seven days, average of eight wells, read-out: CL % Control (or Mortality) rating
Outline: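 Second-instar larvae (one to five per well) placed on artificial diet surface-treated with 50 μg/cm^2 compound in 90:10 acetone-water, dried before infestation. Held 25 °C, 14:10 light-dark for five to seven days; percent mortality scored per well and averaged over eight wells.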

[2] = test system: Beet Armyworm (Spodoptera exigua) ("BAW"); test: Bioassay on beet armyworm (BAW), 128-well diet tray assay; type: in vivo; settings: 168 h, 50 μg/cm^2 on artificial diet, second instar BAW larvae, 25° C., five to seven days, average of eight wells, read-out: BAW % Control (or Mortality) rating
Outline: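 Second-instar larvae (one to five per well) were placed on artificial diet surface-treated with 50 μg/cm^2 compound applied in 90:10 acetone-water and dried, eight wells per compound. Held at 25° C., 14:10 light-dark for five to seven days; percent mortality was scored per well and averaged over the eight wells.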

SMILES	mortality at 50 µg/cm2 [1] [%]	mortality at 50 µg/cm2 [2] [%]
CC(C)c1cc(F)ccc1N1C(=O)CS/C1=N\C(=O)NCc1ccc(-c2ncn(-c3ccc(OC(F)(F)F)cc3)n2)cc1 [P3, P1172, (Z)-1-(3-(4-fluoro-2-isopropylphenyl)-4-oxothiazolidin-2-ylidene)-3-(4-(1-(4-(trifluoromethoxy)phenyl)-1H-1,2,4-triazol-3-yl)benzyl)urea]	50 to 100	50 to 100
Cc1ccc(N2C(=O)CS/C2=N\C(=O)NCc2ccc(-c3ncn(-c4ccc(OC(F)(F)F)cc4)n3)cc2)c(C(C)C)c1 [P5, (Z)-1-(3-(2-isopropyl-4-methylphenyl)-4-oxothiazolidin-2-ylidene)-3-(4-(1-(4-(trifluoromethoxy)phenyl)-1H-1,2,4-triazol-3-yl)benzyl)urea]	50 to 100	50 to 100
COc1ccc(N2C(=O)CS/C2=N\C(=O)NCc2ccc(-c3ncn(-c4ccc(OC(F)(F)F)cc4)n3)cc2)c(C)c1 [P6, (Z)-1-(3-(4-methoxy-2-methylphenyl)-4-oxothiazolidin-2-ylidene)-3-(4-(1-(4-(trifluoromethoxy)phenyl)-1H-1,2,4-triazol-3-yl)benzyl)urea]	50 to 100	50 to 100
CCc1ccc(C)cc1N1C(=O)CS/C1=N\C(=O)NCc1ccc(-c2ncn(-c3ccc(OC(F)(F)F)cc3)n2)cc1 [P7, (Z)-1-(3-(2-ethyl-5-methylphenyl)-4-oxothiazolidin-2-ylidene)-3-(4-(1-(4-(trifluoromethoxy)phenyl)-1H-1,2,4-triazol-3-yl)benzyl)urea]	50 to 100	50 to 100
CCCc1ccc(C)cc1N1C(=O)CS/C1=N\C(=O)NCc1ccc(-c2ncn(-c3ccc(OC(F)(F)F)cc3)n2)cc1 [P8, P852, (Z)-1-(3-(5-methyl-2-propylphenyl)-4-oxothiazolidin-2-ylidene)-3-(4-(1-(4-(trifluoromethoxy)phenyl)-1H-1,2,4-triazol-3-yl)benzyl)urea]	50 to 100	50 to 100
CC(C)c1ccccc1N1C(=O)CS/C1=N\C(=O)NCc1ccc(-c2ncn(-c3ccc(C(F)(F)F)cc3)n2)cc1 [P14, (Z)-1-(3-(2-isopropylphenyl)-4-oxothiazolidin-2-ylidene)-3-(4-(1-(4-(trifluoromethyl)phenyl)-1H-1,2,4-triazol-3-yl)benzyl)urea]	50 to 100	50 to 100
Cc1ccc(N2C(=O)CS/C2=N\C(=O)NCc2ccc(-c3ncn(-c4ccc(C(F)(F)F)cc4)n3)cc2)c(C(C)C)c1 [P15, (Z)-1-(3-(2-isopropyl-4-methylphenyl)-4-oxothiazolidin-2-ylidene)-3-(4-(1-(4-(trifluoromethyl)phenyl)-1H-1,2,4-triazol-3-yl)benzyl)urea]	50 to 100	50 to 100
Cc1ccc(C(C)C)c(N2/C(=N/C(=O)NCCc3ccc(-c4ncn(-c5ccc(OC(F)(F)F)cc5)n4)cc3)SCC2C)c1 (centres unmarked) [P58, (Z)-1-(3-(2-isopropyl-5-methylphenyl)-4-methylthiazolidin-2-ylidene)-3-(4-(1-(4-(trifluoromethoxy)phenyl)-1H-1,2,4-triazol-3-yl)phenethyl)urea]	50 to 100	50 to 100
Cc1ccc(C(C)C)c(N2CCCS/C2=N\C(=O)NCCc2ccc(-c3ncn(-c4ccc(OC(F)(F)F)cc4)n3)cc2)c1 [P59, (Z)-1-(3-(2-isopropyl-5-methylphenyl)-1,3-thiazinan-2-ylidene)-3-(4-(1-(4-(trifluoromethoxy)phenyl)-1H-1,2,4-triazol-3-yl)phenethyl)urea]	50 to 100	50 to 100
Cc1ccc(C(C)C)c(N2CC(C)CS/C2=N\C(=O)NCCc2ccc(-c3ncn(-c4ccc(OC(F)(F)F)cc4)n3)cc2)c1 (centres unmarked) [P64]	50 to 100	50 to 100
Cc1ccccc1N1C(=O)CS/C1=N\C(=O)NCCc1cccc(-c2ncn(-c3ccc(OC(F)(F)F)cc3)n2)c1 [P74, (Z)-1-(4-oxo-3-(o-tolyl)thiazolidin-2-ylidene)-3-(3-(1-(4-(trifluoromethoxy)phenyl)-1H-1,2,4-triazol-3-yl)phenethyl)urea]	50 to 100	50 to 100
CCc1ccccc1N1C(=O)CS/C1=N\C(=O)NCCc1cccc(-c2ncn(-c3ccc(OC(F)(F)F)cc3)n2)c1 [P75, (Z)-1-(3-(2-ethylphenyl)-4-oxothiazolidin-2-ylidene)-3-(3-(1-(4-(trifluoromethoxy)phenyl)-1H-1,2,4-triazol-3-yl)phenethyl)urea]	50 to 100	50 to 100
CC(C)c1ccccc1N1C(=O)CS/C1=N\C(=O)NCCc1cccc(-c2ncn(-c3ccc(OC(F)(F)F)cc3)n2)c1 [P76, (Z)-1-(3-(2-isopropylphenyl)-4-oxothiazolidin-2-ylidene)-3-(3-(1-(4-(trifluoromethoxy)phenyl)-1H-1,2,4-triazol-3-yl)phenethyl)urea]	50 to 100	50 to 100
CCCc1ccc(C)cc1N1C(=O)CS/C1=N\C(=O)NCCc1cccc(-c2ncn(-c3ccc(OC(F)(F)F)cc3)n2)c1 [P80, (Z)-1-(3-(5-methyl-2-propylphenyl)-4-oxothiazolidin-2-ylidene)-3-(3-(1-(4-(trifluoromethoxy)phenyl)-1H-1,2,4-triazol-3-yl)phenethyl)urea]	50 to 100	50 to 100
CCc1cccc(C)c1N1C(=O)CS/C1=N\C(=O)NCCc1cccc(-c2ncn(-c3ccc(OC(F)(F)F)cc3)n2)c1 [P83, (Z)-1-(3-(2-ethyl-6-methylphenyl)-4-oxothiazolidin-2-ylidene)-3-(3-(1-(4-(trifluoromethoxy)phenyl)-1H-1,2,4-triazol-3-yl)phenethyl)urea]	50 to 100	50 to 100
Cc1ccc(N2C(=O)CS/C2=N\C(=O)NCCc2cccc(-c3ncn(-c4ccc(OC(F)(F)F)cc4)n3)c2)c(C(C)C)c1 [P84, (Z)-1-(3-(2-isopropyl-4-methylphenyl)-4-oxothiazolidin-2-ylidene)-3-(3-(1-(4-(trifluoromethoxy)phenyl)-1H-1,2,4-triazol-3-yl)phenethyl)urea]	50 to 100	50 to 100
CC(C)c1cc(F)ccc1N1C(=O)CS/C1=N\C(=O)NCCc1cccc(-c2ncn(-c3ccc(OC(F)(F)F)cc3)n2)c1 [P85, (Z)-1-(3-(4-fluoro-2-isopropylphenyl)-4-oxothiazolidin-2-ylidene)-3-(3-(1-(4-(trifluoromethoxy)phenyl)-1H-1,2,4-triazol-3-yl)phenethyl)urea]	50 to 100	50 to 100
COc1ccc(N2C(=O)CS/C2=N\C(=O)NCCc2cccc(-c3ncn(-c4ccc(OC(F)(F)F)cc4)n3)c2)c(C)c1 [P87, (Z)-1-(3-(4-methoxy-2-methylphenyl)-4-oxothiazolidin-2-ylidene)-3-(3-(1-(4-(trifluoromethoxy)phenyl)-1H-1,2,4-triazol-3-yl)phenethyl)urea]	50 to 100	50 to 100
Cc1ccccc1N1C(=O)CS/C1=N\C(=O)NCCCc1ccc(-c2ncn(-c3ccc(OC(F)(F)F)cc3)n2)cc1 [P92, (Z)-1-(4-oxo-3-(o-tolyl)thiazolidin-2-ylidene)-3-(3-(4-(1-(4-(trifluoromethoxy)phenyl)-1H-1,2,4-triazol-3-yl)phenyl)propyl)urea]	50 to 100	50 to 100
